Series [1] relates to PC12 cells. The experiment in a line: Lipid peroxidation (malondialdehyde levels) in cells exposed to Aβ or DDTC. Type of series: cell-based, rat. To be noted: PC12 cells exposed to amyloid peptide Aβ(1-42) or DDTC, with IPA; FIG. 4. The source says: In order to investigate the possibility that the cytoprotective properties of IPA are also the result, at least in part, of anti-oxidant activity, the -levels of malondialdehyde (“MDA”), a marker of lipid peroxidation, in PC12 cells exposed to Aβ or to oxidative stress were examined. Oxidative stress was delivered by exposing cells to […] (“DDTC”), an inhibitor of superoxide dismutase and an established model of oxidative injury. The PC12 cells were exposed to either amyloid peptide alone or amyloid peptide along with IPA. In other experiments, the cells were exposed to either DDTC alone or DDTC with IPA.

Series [2] concerns PC12 neuroblastoma cells. The experiment in a line: Prevention of cell death induced by oxidative stress (DDTC, superoxide dismutase inhibition). Type of series: cell-based, rat. To be noted: varying amounts of DDTC and IPA, FIG. 5. How it is done:
To further confirm the observations shown in Example 4, we studied whether IPA was effective in preventing death of cells exposed to oxidative stress (DDTC). PC12 neuroblastoma cells were treated with varying amounts of DDTC, with or without varying amounts of IPA. The anti-oxidant activity of IPA is shown by preventing cell death of neurblastoma cells induced by inhibition of the superoxide dismutase by DDTC.

The target of series [3] is Aβ (1-40) (Homo sapiens, UniProt P05067). In words: Aβ fibrillogenesis, thioflavin T fluorescence (β sheet formation). Type of series: biochemical. To be noted: 150 μM Aβ (1-40), 300 μM IPA, sodium salt. How it is done: As a control, the ultrapure water used to dissolve the IPA containing an equivalent amount of sodium chloride was added to 150 μM Aβ (1-40) at a pH of 7. In one experiment, each of the solutions (i.e., the solution containing IPA and the control solution) was incubated for 24 hours. In a second experiment, each of the solutions was incubated for 48 hours. At the end of each incubation period, 50 mM glycine-NaOH buffer (pH 9.2) containing 2 μM thioflavin T was added to each sample (5 μL) to a final volume of 2 mL. Fluorescence, which is a direct measure of β sheet formation, was measured at an excitation wavelength of 435 nm and an emission wavelength of 485 nm using a Hitachi F-2000 fluorescence spectrometer. The average and standard deviations of the mean of 3 samples per condition were determined, and the results are presented (as bar graphs) in FIG. 6A (24 hour incubation) and FIG. 6B (48 hour incubation).
Sequence of Aβ (1-40) (P05067 672-711): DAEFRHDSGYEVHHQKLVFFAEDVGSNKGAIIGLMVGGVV

In series [4] the test system is human neuroblastoma cell line SK-N-SH. The experiment in a line: Cytoprotection against Aβ(25-35) toxicity, cell viability. Format: cell-based. As to conditions: SK-N-SH cells, 50 μM Aβ (25-35), 50 μM compound; FIG. 1. As to the method:
To illustrate the cytoprotective affects of IPA against the cytotoxic effects of Aβ, cells of the human neuroblastoma cell line SK-N-SH were used. These cells were exposed to 50 μM Aβ (25-35), the actively toxic fragment of Aβ (Yankner et al., 1990) with or without 50 μM of IPA. As a control, the experiments were repeated without Aβ. As a positive control, the well-known anti-oxidant, phenyl-N-t-butylnitrone (“PBN”) was substituted for IPA.

Consider `O=C(O)CCc1c[nH]c2ccccc12` [IPA, indole-3-propionic acid], for which the “production of malondialdehyde (MDA), marker of lipid peroxidation” value in series [1] is “significantly decreases the production of malondialdehyde”. Also, the “survival of cells exposed to DDTC” value in series [2] is listed as “increases the survival of cells exposed to DDTC”. The “thioflavin T fluorescence (β sheet formation) relative to control” value in series [3] (pH 7, 24 hour incubation, FIG. 6A) is “significantly less”; in series [3] (pH 7, 48 hour incubation, FIG. 6B), “significantly less”.
For `CC(C)(C)[N+]([O-])=Cc1ccccc1` [PBN, phenyl-N-t-butylnitrone], the “protective activity against cytotoxic effect of Aβ (viability, percent)” value in series [4] is on record as “strong protective activity”.

The values above are taken from patent publication US6395768B1, “Uses for indole-3-propionic acids and salts and esters thereof” (South Alabama Medical Science Foundation, priority 1998, dated 2002).
